Experimental data published in ChEMBL document CHEMBL3045770, “Design and synthesis of some thieno[2,3-c]pyridazine derivatives of expected anticancer activity” (2013).

Experiments:
Assay type in all cases: functional
SNB-75 = test: Cytotoxicity against Homo sapiens (human) SNB75 assessed as cell growth at 10 uM after 48 hr by SRB assay relative to control; conditions: SNB-75, 48 h, read-out: Activity
SF-268 = test: Cytotoxicity against Homo sapiens (human) SF268 assessed as cell growth at 10 uM after 48 hr by SRB assay relative to control; conditions: SF-268, 48 h, read-out: Activity
SF-295 = test: Cytotoxicity against Homo sapiens (human) SF295 assessed as cell growth at 10 uM after 48 hr by SRB assay relative to control; conditions: SF-295, 48 h, read-out: Activity
SW-620 = test: Cytotoxicity against Homo sapiens (human) SW620 assessed as cell growth at 10 uM after 48 hr by SRB assay relative to control; conditions: SW-620, 48 h, read-out: Activity
KM12 = test: Cytotoxicity against Homo sapiens (human) KM12 assessed as cell growth at 10 uM after 48 hr by SRB assay relative to control; conditions: KM12, 48 h, read-out: Activity
HCT-15 = test: Cytotoxicity against Homo sapiens (human) HCT15 assessed as cell growth at 10 uM after 48 hr by SRB assay relative to control; conditions: HCT-15, 48 h, read-out: Activity
HT-29 = test: Cytotoxicity against Homo sapiens (human) HT-29 assessed as cell growth at 10 uM after 48 hr by SRB assay relative to control; conditions: HT-29, 48 h, read-out: Activity
COLO 205 = test: Cytotoxicity against Homo sapiens (human) COLO205 assessed as cell growth at 10 uM after 48 hr by SRB assay relative to control; conditions: COLO 205, 48 h, read-out: Activity
HCC 2998 = test: Cytotoxicity against Homo sapiens (human) HCC2998 assessed as cell growth at 10 uM after 48 hr by SRB assay relative to control; conditions: HCC 2998, 48 h, read-out: Activity
NCI-H460 = test: Cytotoxicity against Homo sapiens (human) NCI-H460 assessed as cell growth at 10 uM after 48 hr by SRB assay relative to control; conditions: NCI-H460, 48 h, read-out: Activity
NCI-H226 = test: Cytotoxicity against Homo sapiens (human) NCI-H226 assessed as cell growth at 10 uM after 48 hr by SRB assay relative to control; conditions: NCI-H226, 48 h, read-out: Activity
NCI-H23 = test: Cytotoxicity against Homo sapiens (human) NCI-H23 assessed as cell growth at 10 uM after 48 hr by SRB assay relative to control; conditions: NCI-H23, 48 h, read-out: Activity
HOP-92 = test: Cytotoxicity against Homo sapiens (human) HOP92 assessed as cell growth at 10 uM after 48 hr by SRB assay relative to control; conditions: HOP-92, 48 h, read-out: Activity
HOP-62 = test: Cytotoxicity against Homo sapiens (human) HOP62 assessed as cell growth at 10 uM after 48 hr by SRB assay relative to control; conditions: HOP-62, 48 h, read-out: Activity
A549 = test: Cytotoxicity against Homo sapiens (human) A549 assessed as cell growth at 10 uM after 48 hr by SRB assay relative to control; conditions: A549, 48 h, read-out: Activity
MOLT-4 = test: Cytotoxicity against Homo sapiens (human) MOLT4 assessed as cell growth at 10 uM after 48 hr by SRB assay relative to control; conditions: MOLT-4, 48 h, read-out: Activity
RPMI-8226 = test: Cytotoxicity against Homo sapiens (human) RPMI8226 assessed as cell growth at 10 uM after 48 hr by SRB assay relative to control; conditions: RPMI-8226, 48 h, read-out: Activity
SN12C = test: Cytotoxicity against Homo sapiens (human) SN12C assessed as cell growth at 10 uM after 48 hr by SRB assay relative to control; conditions: read-out: Activity
RXF 393 = test: Cytotoxicity against Homo sapiens (human) RXF393 assessed as cell growth at 10 uM after 48 hr by SRB assay relative to control; conditions: RXF 393, 48 h, read-out: Activity
SK-OV-3 = test: Cytotoxicity against Homo sapiens (human) SKOV3 assessed as cell growth at 10 uM after 48 hr by SRB assay relative to control; conditions: SK-OV-3, 48 h, read-out: Activity
ACHN = test: Cytotoxicity against Homo sapiens (human) ACHN assessed as cell growth at 10 uM after 48 hr by SRB assay relative to control; conditions: read-out: Activity
OVCAR-8 = test: Cytotoxicity against Homo sapiens (human) OVCAR8 assessed as cell growth at 10 uM after 48 hr by SRB assay relative to control; conditions: OVCAR-8, 48 h, read-out: Activity
OVCAR-5 = test: Cytotoxicity against Homo sapiens (human) OVCAR5 assessed as cell growth at 10 uM after 48 hr by SRB assay relative to control; conditions: OVCAR-5, 48 h, read-out: Activity
SK-MEL-28 = test: Cytotoxicity against Homo sapiens (human) SK-MEL-28 assessed as cell growth at 10 uM after 48 hr by SRB assay relative to control; conditions: SK-MEL-28, 48 h, read-out: Activity
MDA-MB-435 = test: Cytotoxicity against Homo sapiens (human) MDA-MB-435 assessed as cell growth at 10 uM after 48 hr by SRB assay relative to control; conditions: MDA-MB-435, 48 h, read-out: Activity
LOX IMVI = test: Cytotoxicity against Homo sapiens (human) LOXIMVI assessed as cell growth at 10 uM after 48 hr by SRB assay relative to control; conditions: read-out: Activity
CCRF-CEM = test: Cytotoxicity against Homo sapiens (human) CCRF-CEM assessed as cell growth at 10 uM after 48 hr by SRB assay relative to control; conditions: read-out: Activity
MDA-MB-468 = test: Cytotoxicity against Homo sapiens (human) MDA-MB-468 assessed as cell growth at 10 uM after 48 hr by SRB assay relative to control; conditions: MDA-MB-468, 48 h, read-out: Activity
BT-549 = test: Cytotoxicity against Homo sapiens (human) BT549 assessed as cell growth at 10 uM after 48 hr by SRB assay relative to control; conditions: BT-549, 48 h, read-out: Activity
MDA-MB-231 = test: Cytotoxicity against Homo sapiens (human) MDA-MB-231 assessed as cell growth at 10 uM after 48 hr by SRB assay relative to control; conditions: MDA-MB-231, 48 h, read-out: Activity
DU-145 = test: Cytotoxicity against Homo sapiens (human) DU145 assessed as cell growth at 10 uM after 48 hr by SRB assay relative to control; conditions: DU-145, 48 h, read-out: Activity
MCF7 = test: Cytotoxicity against Homo sapiens (human) MCF7 assessed as cell growth at 10 uM after 48 hr by SRB assay relative to control; conditions: MCF7, 48 h, read-out: Activity

| Compound | growth at 10 µM (SNB-75) | growth at 10 µM (SF-268) | growth at 10 µM (SF-295) | growth at 10 µM (SW-620) | growth at 10 µM (KM12) | growth at 10 µM (HCT-15) | growth at 10 µM (HT-29) | growth at 10 µM (COLO 205) | growth at 10 µM (NCI-H460) | growth at 10 µM (NCI-H226) | growth at 10 µM (HOP-92) | growth at 10 µM (HOP-62) | growth at 10 µM (A549) | growth at 10 µM (MOLT-4) | growth at 10 µM (RPMI-8226) | growth at 10 µM (RXF 393) | growth at 10 µM (SK-OV-3) | growth at 10 µM (ACHN) | growth at 10 µM (OVCAR-8) | growth at 10 µM (OVCAR-5) | other results |
| --- | --- | --- | --- | --- | --- | --- | --- | --- | --- | --- | --- | --- | --- | --- | --- | --- | --- | --- | --- | --- | --- |
| CCOC(=O)c1c(Nc2ccc(S(N)(=O)=O)cc2)nnc(-c2ccccc2)c1-c1ccccc1 | 84.6% | 105% | 88.5% | 105% | 104% | 93.4% | 118% | 113% | 108% | 102% | 86.5% | 108% | 90.9% | 78.2% | 80.9% | 109% | 108% | 97.6% | 99.8% | 116% | growth at 10 µM (HCC 2998): 96.8%; growth at 10 µM (NCI-H23): 115%; growth at 10 µM (SN12C): 104%; growth at 10 µM (SK-MEL-28): 107%; growth at 10 µM (MDA-MB-435): 107%; growth at 10 µM (LOX IMVI): 99.4%; growth at 10 µM (CCRF-CEM): 81.8%; growth at 10 µM (MDA-MB-468): 97.9%; growth at 10 µM (BT-549): 95%; growth at 10 µM (MDA-MB-231): 108%; growth at 10 µM (DU-145): 120% |
| CC1=NN(C(=O)c2sc3nnc(-c4ccccc4)c(-c4ccccc4)c3c2O)C(=O)C1 | 90% | 88.3% | 48.8% | 79.4% | 71.3% | 49% | 119% | 111% | 52.2% | 91.9% | 69.5% | 82.8% | 84.5% | 67.8% | 59.3% | 95.6% | 90.6% | 73.2% | 87% | 117% | growth at 10 µM (HCC 2998): 59.7%; growth at 10 µM (NCI-H23): 82.6%; growth at 10 µM (SN12C): 93.8%; growth at 10 µM (MCF7): 85.1%; growth at 10 µM (SK-MEL-28): 83.5%; growth at 10 µM (MDA-MB-435): 83.7%; growth at 10 µM (LOX IMVI): 97.6%; growth at 10 µM (CCRF-CEM): 49.5%; growth at 10 µM (MDA-MB-468): 80.5%; growth at 10 µM (BT-549): 104%; growth at 10 µM (MDA-MB-231): 122%; growth at 10 µM (DU-145): 97.8% |
| Oc1c(-c2n[nH]c(=S)o2)sc2nnc(-c3ccccc3)c(-c3ccccc3)c12 | 72.6% | 102% | 112% | 124% | 119% | 103% | 114% | 106% | 116% | 91.5% | 72.3% | 99.7% | 107% | 91% | 102% | 109% | 96.4% | 92.4% | 106% | 102% | growth at 10 µM (SN12C): 94%; growth at 10 µM (MCF7): 92%; growth at 10 µM (SK-MEL-28): 102%; growth at 10 µM (MDA-MB-435): 93.6%; growth at 10 µM (CCRF-CEM): 96.1%; growth at 10 µM (MDA-MB-468): 108%; growth at 10 µM (BT-549): 99.5%; growth at 10 µM (MDA-MB-231): 109%; growth at 10 µM (DU-145): 112% |
| Oc1c(-c2nnc(-c3ccc(Cl)cc3)o2)sc2nnc(-c3ccccc3)c(-c3ccccc3)c12 | 62.8% | 55.2% | 23.5% | 35.6% | 39.2% | 32% | 91.2% | 67.4% | 27.4% | 67.2% | 54.5% | 51.2% | 51.2% | 35.8% | 40.4% | 72.3% | 61.9% | 54% | 46.1% | 84.8% | growth at 10 µM (HCC 2998): 54.7%; growth at 10 µM (NCI-H23): 56.5%; growth at 10 µM (MCF7): 33.5%; growth at 10 µM (SK-MEL-28): 71.8%; growth at 10 µM (MDA-MB-435): 58.6%; growth at 10 µM (LOX IMVI): 28.1%; growth at 10 µM (CCRF-CEM): 27.6%; growth at 10 µM (MDA-MB-468): 44.6%; growth at 10 µM (BT-549): 56%; growth at 10 µM (MDA-MB-231): 77.9%; growth at 10 µM (DU-145): 71.9% |
| CC(=O)Oc1c(C2=NN(C(C)=O)C(c3ccccc3[N+](=O)[O-])O2)sc2nnc(-c3ccccc3)c(-c3ccccc3)c12 (stereo not given) | 76.3% | 85.6% | 85% | 82.8% | 108% | 78% | 87.5% | 108% | 100% | 93% | 72.3% | 109% | 103% | 47.2% | 57.4% | 93.5% | 106% | 86.8% | 90.1% | 95.1% | growth at 10 µM (HCC 2998): 120%; growth at 10 µM (NCI-H23): 101%; growth at 10 µM (SN12C): 76.3%; growth at 10 µM (MCF7): 64%; growth at 10 µM (SK-MEL-28): 97.1%; growth at 10 µM (MDA-MB-435): 97.9%; growth at 10 µM (LOX IMVI): 105%; growth at 10 µM (CCRF-CEM): 19.6%; growth at 10 µM (MDA-MB-468): 86.5%; growth at 10 µM (BT-549): 89.8%; growth at 10 µM (MDA-MB-231): 89.6%; growth at 10 µM (DU-145): 104% |
